# Molecular target: T1, Human MTAP (Homo sapiens, UniProt Q13126)
# T1 construct: six-histidine tag (His6) (N); made in house; host or cells: E. coli BL21 DE3
# T1 sequence (Q13126 1-283): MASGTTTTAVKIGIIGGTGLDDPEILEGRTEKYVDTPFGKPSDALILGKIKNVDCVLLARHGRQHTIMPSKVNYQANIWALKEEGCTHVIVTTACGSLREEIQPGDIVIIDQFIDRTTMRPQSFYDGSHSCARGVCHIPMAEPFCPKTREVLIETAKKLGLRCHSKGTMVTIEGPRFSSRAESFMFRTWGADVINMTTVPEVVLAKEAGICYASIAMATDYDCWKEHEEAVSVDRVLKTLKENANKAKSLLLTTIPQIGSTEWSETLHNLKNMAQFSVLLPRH
# Test: MTAP substrate assay, coupled spectrophotometric (adenine, xanthine oxidase)
# Format: biochemical
# Conditions: 2 nM MTAP; for activity at 50 µM: 10 min, compound 50 uM, relative to MTA at 50 uM, read-out: MT-A—50: initial velocity as a percentage of the initial velocity with MTA as substrate; for MT-A—10: initial velocity as a percentage of the initial velocity with MTA as substrate: compound 10 uM, relative to MTA at 10 uM
# Method in brief: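 Detection was xanthine oxidase-coupled (0.8 units/ml), reading adenine-derived absorbance at 305 nm over 10 min in potassium phosphate/DTT buffer at 37° C, with N-His6 enzyme purified from E. coli.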
Compound,activity at 50 µM [%],MT-A—10: initial velocity as a percentage of the initial velocity with MTA as substrate [%]
"COC(=O)CCSC[C@H]1O[C@@H](n2cnc3c(N)ncnc32)[C@H](O)[C@@H]1O [2(G)(92), methyl 3-({[(2S, 3S, 4R, 5R)-5-(6-amino-9H-purin-9-yl)-dihydroxytetra-hydrofuran-2-yl]-methyl}thio)propanoate]",36,27
"Nc1ncnc2c1ncn2[C@@H]1O[C@H](CSCc2csc3ccccc23)[C@@H](O)[C@H]1O [2(G)(93), (2R, 3R, 4S, 5S)-2-(6-amino-9H-purin-9-yl)-5-{[(1-benzothien-3-ylmethyl)thio]methyl}tetrahydrofuran-3,4-diol]",17,18
"Nc1ncnc2c1ncn2[C@@H]1O[C@H](CSc2nccnc2CCc2ccccc2)[C@@H](O)[C@H]1O [2(G)(94), (2R, 3R, 4S, 5S)-2-(6-amino-9H-purin-9-yl)-5-({[3-(2-phenylethyl)-pyrazin-2-yl]thio}methyl)tetrahydrofuran-3,4-diol]",5,5
"Nc1ncnc2c1ncn2[C@@H]1O[C@H](CSCC(=O)Nc2ccccc2)[C@@H](O)[C@H]1O [2(G)(104), 2-({[(2S, 3S, 4R, 5R)-5-(6-amino-9H-purin-9-yl)-3,4-dihydroxytetrahydro-furan-2-yl]methyl}thio)-N-phenylacetamide]",15,5
"Nc1ncnc2c1ncn2[C@@H]1O[C@H](CSc2c[nH]c3ccccc23)[C@@H](O)[C@H]1O [2(G)(106), (2R, 3R, 4S, 5S)-2-(6-amino-9H-purin-9-yl)-5-[(1H-indol-3-ylthio)-methyl]-tetrahydrofuran-3,4-diol]",3,6
"COC(=O)c1ccccc1SC[C@H]1O[C@@H](n2cnc3c(N)ncnc32)[C@H](O)[C@@H]1O [2(G)(107), methyl 2-({[(2S, 3S, 4R, 5R)-5-(6-amino-9H-purin-9-yl)-3,4-dihydroxy-tetrahydrofuran-2-yl]-methyl}thio)-benzoate]",2,4
"Nc1ncnc2c1ncn2[C@@H]1O[C@H](CSc2ccc(/C=C/C(=O)O)cc2)[C@@H](O)[C@H]1O [2(G)(108), (2E)-3-[4-({[(2S, 3S, 4R, 5R)-5-(6-amino-9H-purin-9-yl)-3,4-dihydroxytetra-hydrofuran-2-yl]methyl}thio)phenyl]acrylic acid]",19,8
"COC(=O)/C=C/c1ccc(SC[C@H]2O[C@@H](n3cnc4c(N)ncnc43)[C@H](O)[C@@H]2O)cc1 [2(G)(110), methyl (2E)-3-[4-({[(2S, 3S, 4R, 5R)-5-(6-amino-9H-purin-9-yl)-dihydroxy-tetrahydrofuran-2-yl]-methyl}thio)phenyl]-acrylate]",9,15
"COc1cccc(-c2nnc(SC[C@H]3O[C@@H](n4cnc5c(N)ncnc54)[C@H](O)[C@@H]3O)n2C)c1 [2(G)(111), (2R, 3R, 4S, 5S)-2-(6-amino-9H-purin-9-yl)-5-({[5-(3-methoxyphenyl)-4-methyl-4H-1,2,4-triazol-3-yl]thio}-methyl)tetrahydrofuran-3,4-diol]",4,8
"Cn1c(SC[C@H]2O[C@@H](n3cnc4c(N)ncnc43)[C@H](O)[C@@H]2O)nc2ccccc21 [2(G)(113), (2R, 3R, 4S, 5S)-2-(6-amino-9H-purin-9-yl)-5-{[(1-methyl-1H-benzimidazol-2-yl)thio]-methyl}tetrahydro-furan-3,4-diol]",43,48
"CC(=O)NCCSC[C@H]1O[C@@H](n2cnc3c(N)ncnc32)[C@H](O)[C@@H]1O [2(G)(114), N-[2-({[(2S, 3S, 4R, 5R)-5-(6-amino-9H-purin-9-yl)-3,4-dihydroxytetra-hydrofuran-2-yl]methyl}thio)ethyl]acetamide]",11,29

# Further lines, results first:
activity at 50 µM [%],MT-A—10: initial velocity as a percentage of the initial velocity with MTA as substrate [%],Compound
8,3,"Nc1ncnc2c1ncn2[C@@H]1O[C@H](CSc2cccc(C(=O)O)c2)[C@@H](O)[C@H]1O [2(G)(90), 3-({[(2S, 3S, 4R, 5R)-5-(6-amino-9H-purin-9-yl)-3,4-dihydroxytetrahydro-furan-2-yl]methyl}thio)benzoic acid]"
5,5,"Nc1ncnc2c1ncn2[C@@H]1O[C@H](CSc2ccccc2[N+](=O)[O-])[C@@H](O)[C@H]1O [2(G)(91), (2R, 3R, 4S, 5S)-2-(6-amino-9H-purin-9-yl)-5-{[(2-nitrophenyl)thio]-methyl}tetrahydrofuran-3,4-diol]"
7,7,"Nc1ncnc2c1ncn2[C@@H]1O[C@H](CSc2ccc(C(=O)O)cc2)[C@@H](O)[C@H]1O [2(G)(95), 4-({[(2S, 3S, 4R, 5R)-5-(6-amino-9H-purin-9-yl)-3,4-dihydroxytetrahydro-furan-2-yl]methyl}thio)-benzoic acid]"
6,5,"Nc1ncnc2c1ncn2[C@@H]1O[C@H](CSc2ccccc2Cl)[C@@H](O)[C@H]1O [2(G)(96), (2R, 3R, 4S, 5S)-2-(6-amino-9H-purin-9-yl)-5-{((2-chlorophenyl)thio]-methyl}tetrahydrofuran-3,4-diol]"
6,5,"Nc1ncnc2c1ncn2[C@@H]1O[C@H](CSc2cc(Cl)ccc2Cl)[C@@H](O)[C@H]1O [2(G)(97), (2R, 3R, 4S, 5S)-2-(6-amino-9H-purin-9-yl)-5-{[(2,5-dichlorophenyl)-thio]methyl}tetrahydro-furan-3,4-diol]"
18,20,"Nc1ncnc2c1ncn2[C@@H]1O[C@H](CSc2cccc(Cl)c2)[C@@H](O)[C@H]1O [2(G)(98), (2R, 3R, 4S, 5S)-2-(6-amino-9H-purin-9-yl)-5-{[(3-chlorophenyl)thio]-methyl}tetrahydrofuran-3,4-diol]"
18,17,"Nc1ncnc2c1ncn2[C@@H]1O[C@H](CSc2cccc(C(F)(F)F)c2)[C@@H](O)[C@H]1O [2(G)(99), (2R, 3R,4S, 5S)-2-(6-amino-9H-purin-9-yl)-5-({[3-(trifluoromethyl)-phenyl]thio}methyl)-tetrahydrofuran-3,4-diol]"
10,7,"Cc1nccnc1SC[C@H]1O[C@@H](n2cnc3c(N)ncnc32)[C@H](O)[C@@H]1O [2(G)(100), (2R, 3R, 4S, 5S)-2-(6-amino-9H-purin-9-yl)-5-{[(3-methylpyrazin-2-yl)thio]methyl}tetrahydro-furan-3,4-diol]"
38,36,"Nc1ncnc2c1ncn2[C@@H]1O[C@H](CSc2cccc(O)c2)[C@@H](O)[C@H]1O [2(G)(101), (2R, 3R, 4S, 5S)-2-(6-amino-9H-purin-9-yl)-5-{[(3-hydroxyphenyl)-thio]methyl}tetrahydro-furan-3,4-diol]"
3,2,"Nc1ncnc2c1ncn2[C@@H]1O[C@H](CSc2c(Cl)cccc2Cl)[C@@H](O)[C@H]1O [2(G)(102), (2R, 3R, 4S, 5S)-2-(6-amino-9H-purin-9-yl)-5-{[(2,6-dichIorophenyl)-thio]methyl}tetrahydro-furan-3,4-diol]"
4,3,"Nc1ncnc2c1ncn2[C@@H]1O[C@H](CSc2ccc(C(F)(F)F)cc2[N+](=O)[O-])[C@@H](O)[C@H]1O [2(G)(103), (2R, 3R, 4S, 5S)-2-(6-amino-9H-purin-9-yl)-5-({[2-nitro-4-(trifluoromethyl)phenyl]thio}methyl)tetrahydro-furan-3,4-diol]"
21,17,"Nc1ncnc2c1ncn2[C@@H]1O[C@H](CSc2ccc([N+](=O)[O-])cn2)[C@@H](O)[C@H]1O [2(G)(105), (2R, 3R, 4S, 5S)-2-(6-amino-9H-purin-9-yl)-5-{[(5-nitropyridin-2-yl)thio]methyl}tetrahydro-furan-3,4-diol]"
8,8,"COC(=O)c1cccc(SC[C@H]2O[C@@H](n3cnc4c(N)ncnc43)[C@H](O)[C@@H]2O)c1 [2(G)(109), methyl 3-({[(2S, 3S, 4R, 5R)-5-(6-amino-9H-purin-9-yl)-1,3,4-dihydroxytetra-hydrofuran-2-yl]methyl}thio)benzoate]"
10,17,"Nc1ncnc2c1ncn2[C@@H]1O[C@H](CSc2nccc(-c3ccco3)n2)[C@@H](O)[C@H]1O [2(G)(112), (2R, 3R, 4S, 5S)-2-(6-amino-9H-purin-9-yl)-5-({[4-(2-furyl)pyrimidin-2-yl]thio}methyl)tetrahydro-furan-3,4-diol]"

# Reference: patent US20040043959A1, “Combination therapies for treating methylthioadenosine phosphorylase deficient cells” (priority 2002, published 2004)
